Earlier results as cited in patent EP3155636B1, “A PROBE FOR EXTRACTION OF MOLECULES OF INTEREST FROM A SAMPLE” (JP Scientific Limited, priority 2014, dated 2015).

conditions: listed with the MS/MS parameters of 21 WADA controlled substances; source and method not stated

Log P | SMILES
2.14 | CC(C)NCC(O)COc1ccc(COCCOC(C)C)cc1 (stereo not drawn) [Bisoprolol]
0.33 | CCN(CC)C(=O)c1cccnc1 [Nikethamide]
3.70 | C=C1C[C@@H]2[C@H](CC[C@]3(C)C(=O)CC[C@@H]23)[C@@]2(C)C=CC(=O)C=C12 [Exemestane]
0.64 | CC(C)(C)NCC(O)c1ccc(O)c(CO)c1 (stereo not drawn) [Salbutamol]
6.29 | Cc1cc(SCc2sc(-c3ccc(C(F)(F)F)cc3)nc2C)ccc1OCC(=O)O [GW501516]
6.80 | CN(C)CCOc1ccc(/C(=C(/CCCl)c2ccccc2)c2ccccc2)cc1 [Toremifene]
